In PubChem BioAssay AID588689 (Southern Research Specialized Biocontainment Screening …, 2011):

Target: Genome polyprotein (Dengue virus type 2 (strain 16681-PDK53)) (UniProt P29991)
Experiment: Dengue-2 NS5 methyltransferase inhibitors, primary screen, biochemical, confirmation dose response (AID 588689)
Conditions: Dengue-2 NS5 methyltransferase capping enzyme assay

Genome polyprotein (Dengue virus type 2 (strain 16681-PDK53)), sequence (P29991 whole entry, looked up): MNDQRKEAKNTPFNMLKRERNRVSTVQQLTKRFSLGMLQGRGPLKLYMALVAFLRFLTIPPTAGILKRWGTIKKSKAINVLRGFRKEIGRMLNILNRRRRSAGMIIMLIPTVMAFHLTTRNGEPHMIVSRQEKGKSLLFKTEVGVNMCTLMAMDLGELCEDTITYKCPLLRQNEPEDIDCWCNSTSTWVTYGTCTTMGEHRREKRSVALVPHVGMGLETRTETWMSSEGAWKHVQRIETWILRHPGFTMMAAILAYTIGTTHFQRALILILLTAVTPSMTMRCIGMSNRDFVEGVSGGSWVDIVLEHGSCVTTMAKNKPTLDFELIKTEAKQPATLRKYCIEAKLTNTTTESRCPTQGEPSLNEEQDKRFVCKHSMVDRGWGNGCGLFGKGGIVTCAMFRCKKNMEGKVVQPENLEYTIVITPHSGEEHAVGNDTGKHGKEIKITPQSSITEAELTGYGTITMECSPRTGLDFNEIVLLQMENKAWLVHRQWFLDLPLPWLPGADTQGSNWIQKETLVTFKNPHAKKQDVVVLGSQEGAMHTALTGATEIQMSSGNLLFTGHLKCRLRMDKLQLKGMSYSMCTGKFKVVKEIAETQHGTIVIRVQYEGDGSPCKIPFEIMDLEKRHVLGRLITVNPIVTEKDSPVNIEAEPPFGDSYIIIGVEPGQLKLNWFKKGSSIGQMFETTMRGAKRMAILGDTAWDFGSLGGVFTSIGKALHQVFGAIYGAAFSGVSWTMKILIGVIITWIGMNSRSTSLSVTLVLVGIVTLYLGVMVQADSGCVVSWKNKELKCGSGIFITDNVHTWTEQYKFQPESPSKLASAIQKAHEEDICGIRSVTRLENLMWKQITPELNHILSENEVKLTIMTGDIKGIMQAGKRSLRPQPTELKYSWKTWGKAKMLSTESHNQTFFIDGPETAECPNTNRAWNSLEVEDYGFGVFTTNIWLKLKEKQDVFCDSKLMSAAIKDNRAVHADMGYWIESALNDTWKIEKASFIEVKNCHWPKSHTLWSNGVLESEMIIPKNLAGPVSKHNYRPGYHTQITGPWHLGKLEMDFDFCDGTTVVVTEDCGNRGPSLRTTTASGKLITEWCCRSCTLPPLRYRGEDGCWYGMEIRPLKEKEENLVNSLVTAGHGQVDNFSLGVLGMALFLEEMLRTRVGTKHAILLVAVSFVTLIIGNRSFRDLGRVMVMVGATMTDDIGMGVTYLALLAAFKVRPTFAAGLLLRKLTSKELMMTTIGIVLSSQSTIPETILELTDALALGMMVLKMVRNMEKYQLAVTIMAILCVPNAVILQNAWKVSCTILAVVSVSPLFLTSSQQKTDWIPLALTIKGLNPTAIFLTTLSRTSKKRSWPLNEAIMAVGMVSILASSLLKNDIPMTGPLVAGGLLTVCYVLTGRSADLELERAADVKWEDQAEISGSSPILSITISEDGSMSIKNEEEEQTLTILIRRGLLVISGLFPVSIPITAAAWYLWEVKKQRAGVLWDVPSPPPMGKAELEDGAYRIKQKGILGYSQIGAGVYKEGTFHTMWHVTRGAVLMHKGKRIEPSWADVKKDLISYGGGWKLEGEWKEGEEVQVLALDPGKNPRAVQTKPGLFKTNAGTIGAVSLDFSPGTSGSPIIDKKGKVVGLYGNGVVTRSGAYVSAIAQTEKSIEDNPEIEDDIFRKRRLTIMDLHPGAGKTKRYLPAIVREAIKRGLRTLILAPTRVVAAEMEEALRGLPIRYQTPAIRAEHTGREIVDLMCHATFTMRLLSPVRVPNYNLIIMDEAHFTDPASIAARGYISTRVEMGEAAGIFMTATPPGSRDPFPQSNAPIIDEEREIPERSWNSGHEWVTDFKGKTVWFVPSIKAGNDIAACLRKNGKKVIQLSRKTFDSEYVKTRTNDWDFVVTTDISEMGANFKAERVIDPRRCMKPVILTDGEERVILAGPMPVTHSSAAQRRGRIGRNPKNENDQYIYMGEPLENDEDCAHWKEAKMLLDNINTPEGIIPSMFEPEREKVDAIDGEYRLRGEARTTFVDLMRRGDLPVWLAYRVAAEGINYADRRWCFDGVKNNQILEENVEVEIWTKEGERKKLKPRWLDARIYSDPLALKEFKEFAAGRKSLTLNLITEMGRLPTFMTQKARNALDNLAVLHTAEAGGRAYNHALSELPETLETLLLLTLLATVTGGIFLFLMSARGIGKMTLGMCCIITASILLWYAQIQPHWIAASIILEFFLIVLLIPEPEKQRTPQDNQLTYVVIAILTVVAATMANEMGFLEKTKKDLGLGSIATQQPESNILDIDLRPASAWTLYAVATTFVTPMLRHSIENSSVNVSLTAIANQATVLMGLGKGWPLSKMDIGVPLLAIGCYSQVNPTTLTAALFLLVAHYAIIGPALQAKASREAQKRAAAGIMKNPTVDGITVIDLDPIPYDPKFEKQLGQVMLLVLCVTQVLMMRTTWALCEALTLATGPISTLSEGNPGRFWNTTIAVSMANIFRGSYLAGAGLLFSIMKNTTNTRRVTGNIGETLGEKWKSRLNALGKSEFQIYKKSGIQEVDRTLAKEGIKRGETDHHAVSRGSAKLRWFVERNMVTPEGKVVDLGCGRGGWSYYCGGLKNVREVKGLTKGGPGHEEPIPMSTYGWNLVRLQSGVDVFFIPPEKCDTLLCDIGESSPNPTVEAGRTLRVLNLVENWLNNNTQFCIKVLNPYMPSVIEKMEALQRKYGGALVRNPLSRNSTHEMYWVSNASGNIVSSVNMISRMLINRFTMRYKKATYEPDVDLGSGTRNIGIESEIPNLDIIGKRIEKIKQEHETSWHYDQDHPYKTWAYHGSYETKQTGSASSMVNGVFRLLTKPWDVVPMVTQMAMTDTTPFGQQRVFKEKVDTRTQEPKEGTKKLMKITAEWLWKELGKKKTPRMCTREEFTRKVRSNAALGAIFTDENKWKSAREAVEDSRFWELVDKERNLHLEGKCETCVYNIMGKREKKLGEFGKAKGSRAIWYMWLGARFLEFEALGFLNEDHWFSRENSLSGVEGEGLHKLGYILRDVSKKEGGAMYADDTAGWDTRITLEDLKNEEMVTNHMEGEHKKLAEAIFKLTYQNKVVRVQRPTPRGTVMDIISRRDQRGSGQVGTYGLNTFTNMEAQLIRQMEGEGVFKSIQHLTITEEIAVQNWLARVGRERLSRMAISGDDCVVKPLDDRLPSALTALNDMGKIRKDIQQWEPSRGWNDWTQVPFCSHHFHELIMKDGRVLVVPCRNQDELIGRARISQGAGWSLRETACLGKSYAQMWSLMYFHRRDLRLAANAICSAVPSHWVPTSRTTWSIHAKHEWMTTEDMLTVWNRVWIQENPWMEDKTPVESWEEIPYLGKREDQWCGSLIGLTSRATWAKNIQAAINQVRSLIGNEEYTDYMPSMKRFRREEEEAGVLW

IC50 [µM] | Structure (SMILES)
34.6 | C=Cc1c(C)c2cc3[nH]c(cc4nc(cc5nc(cc1[nH]2)C(C)=C5CCC(=O)O)C(CCC(=O)O)=C4C)c(C)c3C=C
14 | CCCCC1(C)OC(=O)C(=Cc2ccc(-c3ccc(Cl)c(C(=O)O)c3)o2)C(=O)O1 (configuration not stated)
